Legend:
CHO-M cells [1] = assay: CHO-M growth in vitamin-depleted B-CDmin medium complemented with lower concentrations of each vitamin; assay type: cell-based, Chinese hamster
Procedure: Cells (5000 cells/ml) were transferred into 150 μl media with different concentrations of vitamin B1, B5 or H (from 0 to 1×, see Table 2). 96 well-plates were used and growth was measured after 9 days of culture, by measuring the OD at 600 nm. Hatched (forward-leaning), dotted dark and hatched (backward-leaning) bars indicate modulation of B1, B5 and H concentrations, respectively.
The depleted B-CDmin medium was complemented with lower concentration of each vitamin separately, to determine the contrations range limiting CHO-M growth.
Suspension Chinese hamster ovary cells (CHO-M) were maintained in suspension culture in SFM4CHO-M Hyclone serum-free medium (SFM, ThermoScientific™) supplemented with L-glutamine (PAA, Austria) and HT supplement (GIBCO, INVITROGEN LIFE SCIENCES) at […], 5% CO2 in humidified air. Other cell media used for these experiments are the BalanCD CHO-M Growth A (B-CDfull; Irvine Scientific), and the Deficient BalanCD CHO-M Growth A (B-CDmin; Irvine Scientific), supplemented with vitamin B1 (thiamine Hydrochloride; SIGMA ALDRICH), vitamin B5 (Calcium DL-Pantothenate; TCI) and vitamin H (Biotin, SIGMA ALDRICH)

CHO-M cells [2] = assay: CHO-M growth in B-CDmin medium supplemented with various concentrations of B5 and H; assay type: cell-based, Chinese hamster; conditions: B5 in 10× excess with low H (10×B5; 10^−4×H), 6 days of culture
Procedure: Cells were seeded at 20000 cells/ml into 500 μl of B-CD min media supplemented with the indicated amounts of vitamin B5 and H, and with B1 (1×). A 24 well-plate was used and growth was measured after 6 days of culture by measuring viable cell density.

Molecule	cell density versus full medium (CHO-M cells [1]; H at low concentration (10^−5×))	limiting concentration (CHO-M cells [1]; absolute concentration as printed, CHO-M, 9 days of culture) [µM]	growth-limiting concentration range (CHO-M cells [1]; relative to standard concentration (1×: B1 7.5 μM, B5 2.5 μM, H 0.5 μM), CHO-M, 9 days of culture)	concentration allowing normal culture growth (CHO-M cells [1]; relative to standard B5 concentration (1× = 2.5 μM))	untransformed cell growth relative to complete medium (1×B5; 10^−4×H) (CHO-M cells [2])
O=C(O)CCCC[C@@H]1SC[C@@H]2NC(=O)N[C@@H]21 [H, Biotin]	slightly higher	< 5	lower than 10^−5 ×		
Calcium DL-Pantothenate [B5]				≥ 10^−2 ×	strongly inhibited

Reference: patent US20180066268A1, “USE OF VITAMINS AND VITAMIN METABOLIC GENES AND PROTEINS FOR RECOMBINANT PROTEIN PRODUCTION IN MAMMALIAN CELLS” (priority 2015, published 2018)
